Laboratory results: PubChem BioAssay AID256 (DTP/NCI, 2004)
Toxic doses and inconclusive results are not listed.

Tested on: CD2F1 mice, L1210 leukemia ip, survival T/C
Assay: NCI In Vivo Anticancer Drug Screen. Data for tumor model L1210 Leukemia (intraperitoneal) in CD2F1 (CDF1) mice
Details: endpoint: mean survival time, higher = longer survival
Procedure, shortened: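 Each value reflects a quotient of treated over vehicle control outcomes in mice with a transplanted tumor.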

[1] = dose: 100.0 mg/kg/injection, schedule: Q01DX001 (ip), vehicle: saline with Tween-80
[2] = dose: 200.0 mg/kg/injection, schedule: Q01DX001 (ip), vehicle: saline with Tween-80
[3] = dose: 400.0 mg/kg/injection, schedule: Q01DX001 (ip), vehicle: saline with Tween-80
[4] = dose: 100.0 mg/kg/injection, schedule: Q04DX003 (ip), vehicle: saline with Tween-80
[5] = dose: 200.0 mg/kg/injection, schedule: Q04DX003 (ip), vehicle: saline with Tween-80
[6] = dose: 75.0 mg/kg/injection, schedule: Q01DX001 (ip), vehicle: saline

SMILES: CCOc1ccc(N=Nc2sc(N)nc2-c2cccc([N+](=O)[O-])c2)cc1
- T/C [1]: 89 % of control
- T/C [2]: 96 % of control
- T/C [3]: 96 % of control

SMILES: CCOC(=O)C(C(C)=O)C(C)C (configuration not stated)
- T/C (dose: 25.0 mg/kg/injection, schedule: Q01DX009 (ip), vehicle: water): 95 % of control
- T/C (dose: 50.0 mg/kg/injection, schedule: Q01DX009 (ip), vehicle: water): 102 % of control
- T/C (dose: 100.0 mg/kg/injection, schedule: Q01DX009 (ip), vehicle: water): 102 % of control
- T/C (dose: 200.0 mg/kg/injection, schedule: Q01DX009 (ip), vehicle: water): 97 % of control
- T/C (dose: 400.0 mg/kg/injection, schedule: Q01DX009 (ip), vehicle: water): 97 % of control

SMILES: O=c1[nH]cc(F)c(=O)n1-c1ccco1
- T/C [4]: 111 % of control
- T/C [5]: 166 % of control

SMILES: CCC/C=C(\C)C(C#N)CC (configuration not stated)
- T/C [6]: 100 % of control
- T/C (dose: 150.0 mg/kg/injection, schedule: Q01DX001 (ip), vehicle: saline): 97 % of control
- T/C (dose: 300.0 mg/kg/injection, schedule: Q01DX001 (ip), vehicle: saline): 101 % of control

SMILES: C[N+]12CCC34C5=CC(=O)C(=O)C=C5[N+]5(C)C(=O)CC6OCC=C(C1)C(CC32)C6C45 (configuration not stated)
- T/C [6]: 106 % of control

SMILES: O=[n+]1ccn([O-])c2ccccc21
- T/C (dose: 100.0 mg/kg/injection, schedule: Q04DX002 (ip), vehicle: saline with Tween-80): 111 % of control
- T/C (dose: 200.0 mg/kg/injection, schedule: Q04DX002 (ip), vehicle: saline with Tween-80): 105 % of control

SMILES: N#CC/C(=N\Nc1ccc([N+](=O)[O-])cc1[N+](=O)[O-])c1ccccc1
- T/C (dose: 100.0 mg/kg/injection, schedule: Q04DX003 (ip), vehicle: saline sonified): 100 % of control
- T/C (dose: 200.0 mg/kg/injection, schedule: Q04DX003 (ip), vehicle: saline sonified): 100 % of control
- T/C (dose: 400.0 mg/kg/injection, schedule: Q04DX003 (ip), vehicle: saline sonified): 97 % of control

SMILES: CC(C)(C)CC(C)(C)c1ccc(OCCOc2ccccc2NS(=O)(=O)c2ccc(N)cc2)cc1
- T/C (dose: 100.0 mg/kg/injection, schedule: Q01DX001 (ip), vehicle: Klucel (hydroxypropylcellulose) (HPC)): 98 % of control
- T/C (dose: 200.0 mg/kg/injection, schedule: Q01DX001 (ip), vehicle: Klucel (hydroxypropylcellulose) (HPC)): 96 % of control

SMILES: Oc1c(C(c2ccccc2)N2CCCCC2)ccc2ccccc12 (configuration not stated)
- T/C (dose: 100.0 mg/kg/injection, schedule: Q01DX009 (ip), vehicle: saline with Tween-80): 101 % of control
- T/C (dose: 200.0 mg/kg/injection, schedule: Q01DX009 (ip), vehicle: saline with Tween-80): 97 % of control

SMILES: FC(F)(F)c1cccc([PH+](c2cccc(C(F)(F)F)c2)c2cccc(C(F)(F)F)c2)c1.FC(F)(F)c1cccc([PH+](c2cccc(C(F)(F)F)c2)c2cccc(C(F)(F)F)c2)c1.[Cl][Hg][Cl]
- T/C (dose: 12.5 mg/kg/injection, schedule: Q01DX009 (ip), vehicle: Klucel (hydroxypropylcellulose) (HPC)): 101 % of control
- T/C (dose: 25.0 mg/kg/injection, schedule: Q01DX009 (ip), vehicle: Klucel (hydroxypropylcellulose) (HPC)): 108 % of control
- T/C (dose: 50.0 mg/kg/injection, schedule: Q01DX009 (ip), vehicle: Klucel (hydroxypropylcellulose) (HPC)): 89 % of control

SMILES: COc1ccc(CCNC2C3CC4CC(C3)CC2C4)cc1OC (configuration not stated)
- T/C (dose: 25.0 mg/kg/injection, schedule: Q04DX003 (ip), vehicle: saline with Tween-80): 112 % of control
- T/C (dose: 50.0 mg/kg/injection, schedule: Q04DX003 (ip), vehicle: saline with Tween-80): 101 % of control
- T/C [4]: 101 % of control

SMILES: COc1cccc(CCNc2ccncc2N)c1
- T/C [6]: 96 % of control

SMILES: CCOC(=O)CCCCSCCCCC(=O)OCC
- T/C [1]: 100 % of control
- T/C [2]: 105 % of control
- T/C [3]: 101 % of control

SMILES: O=NN1C(=O)C2CC3CC(C2)CC1C3
- T/C (dose: 12.5 mg/kg/injection, schedule: Q04DX003 (ip), vehicle: acetone): 94 % of control

SMILES: CCOC(=O)C(CCC(C)C)C(C)=O (configuration not stated)
- T/C (dose: 100.0 mg/kg/injection, schedule: Q01DX005 (ip), vehicle: saline with Tween-80): 93 % of control
- T/C (dose: 200.0 mg/kg/injection, schedule: Q01DX005 (ip), vehicle: saline with Tween-80): 103 % of control
- T/C (dose: 400.0 mg/kg/injection, schedule: Q01DX005 (ip), vehicle: saline with Tween-80): 106 % of control

SMILES: COc1ccc2c(c1)C=CC(C#N)N2 (configuration not stated)
- T/C [4]: 87 % of control
- T/C [5]: 91 % of control

SMILES: CCCCCCCCCCCCOCC[N+](C/C=C/c1ccccc1)(CCO)CCO
- T/C (dose: 6.25 mg/kg/injection, schedule: Q04DX003 (ip), vehicle: saline sonified): 97 % of control
- T/C (dose: 12.5 mg/kg/injection, schedule: Q04DX003 (ip), vehicle: saline sonified): 103 % of control
- T/C (dose: 25.0 mg/kg/injection, schedule: Q04DX003 (ip), vehicle: saline sonified): 101 % of control

SMILES: CCN(C(=O)Nc1ccccc1OC)c1ccccc1
- T/C [4]: 98 % of control
- T/C [5]: 98 % of control
- T/C (dose: 400.0 mg/kg/injection, schedule: Q04DX003 (ip), vehicle: saline with Tween-80): 93 % of control

SMILES: CC(=O)OCC1OC(n2ncc3c(Cl)ncnc32)C(OC(C)=O)C1OC(C)=O (configuration not stated)
- T/C (dose: 12.5 mg/kg/injection, schedule: Q01DX005 (ip), vehicle: water): 93 % of control
- T/C (dose: 25.0 mg/kg/injection, schedule: Q01DX005 (ip), vehicle: water): 93 % of control
- T/C (dose: 50.0 mg/kg/injection, schedule: Q01DX005 (ip), vehicle: water): 101 % of control
- T/C (dose: 100.0 mg/kg/injection, schedule: Q01DX005 (ip), vehicle: water): 112 % of control
- T/C (dose: 200.0 mg/kg/injection, schedule: Q01DX005 (ip), vehicle: water): 103 % of control

SMILES: ClCC(Cl)CN1CCCCC1 (configuration not stated)
- T/C (dose: 25.0 mg/kg/injection, schedule: Q01DX009 (ip), vehicle: saline): 100 % of control
- T/C (dose: 50.0 mg/kg/injection, schedule: Q01DX009 (ip), vehicle: saline): 103 % of control
